Measured values reported in ChEMBL document CHEMBL2406913, “First synthesis and biological evaluation of 4-amino-2-aryl-6,9-dichlorobenzo[g]pteridines as inhibitors of TNF-α and IL-6” (Eur J Med Chem, 2013).

Experiments:
HL-60 [1] = test: Antiinflammatory activity in human HL-60 derived macrophage-like cells assessed as inhibition of LPS-induced IL-6 production at 50 uM treated 30 mins before LPS stimulation measured after 24 hrs by ELISA; assay type: functional
HL-60 [2] = test: Antiinflammatory activity in human HL-60 derived macrophage-like cells assessed as inhibition of LPS-induced TNFalpha production at 50 uM treated 30 mins before LPS stimulation measured after 24 hrs by ELISA; assay type: functional
HL-60 [3] = test: Cytotoxicity against human HL-60 derived macrophage-like cells at 50 uM after 1 hr by MTT assay; assay type: cell-based; details: hl-60, 1 h
HL-60 [4] = test: Antiinflammatory activity in human HL-60 derived macrophage-like cells assessed as inhibition of LPS-induced TNFalpha production treated 30 mins before LPS stimulation measured after 24 hrs by ELISA; assay type: functional, cell-based
HL-60 [5] = test: Antiinflammatory activity in human HL-60 derived macrophage-like cells assessed as inhibition of LPS-induced IL-6 production treated 30 mins before LPS stimulation measured after 24 hrs by ELISA; assay type: functional, cell-based

Row | IC50 (HL-60 [4]) | IC50 (HL-60 [5]) | SMILES | inhibition at 50 µM (HL-60 [1]) | inhibition at 50 µM (HL-60 [2]) | Activity (HL-60 [3])
1 | 7.3 µM | 22.9 µM | Nc1nc(-c2cc(C(F)(F)F)cc(C(F)(F)F)c2)nc2nc3c(Cl)ccc(Cl)c3nc12 | 100% | 99.7% | 0%
2 | 36.2 µM | 25.7 µM | Nc1ccc(-c2nc(N)c3nc4c(Cl)ccc(Cl)c4nc3n2)cc1 | 85.1% | 63.2% | 15.7%
3 | 5.8 µM | 26.5 µM | Cc1ccc(-c2nc(N)c3nc4c(Cl)ccc(Cl)c4nc3n2)cc1F | 93% | 80% | 1.8%
4 | 8.7 µM | 35.4 µM | Nc1nc(-c2ccc(C(F)(F)F)cc2)nc2nc3c(Cl)ccc(Cl)c3nc12 | 83% | 67.2% | 0%
5 | 7.4 µM | 25.2 µM | Cc1ccc(-c2nc(N)c3nc4c(Cl)ccc(Cl)c4nc3n2)cc1 | 95.4% | 87.4% | 3.9%
6 | – | 46.9 µM | Nc1nc(-c2ccc(Cl)cc2)nc2nc3c(Cl)ccc(Cl)c3nc12 | 54.3% | 6.7% | 2.5%
7 | 35.9 µM | 34.4 µM | Nc1nc(-c2ccccc2)nc2nc3c(Cl)ccc(Cl)c3nc12 | 73.8% | 75.2% | 13%
8 | 6 µM | 25.7 µM | Cc1cccc(-c2nc(N)c3nc4c(Cl)ccc(Cl)c4nc3n2)c1 | 95.1% | 100% | 0.2%
9 | – | – | Nc1nc(-c2cccc([N+](=O)[O-])c2)nc2nc3c(Cl)ccc(Cl)c3nc12 | 41.3% | 0% | 1.5%

Row | SMILES | IC50 (HL-60 [4]) | IC50 (HL-60 [5]) | inhibition at 50 µM (HL-60 [1]) | inhibition at 50 µM (HL-60 [2]) | Activity (HL-60 [3])
10 | C[S+]([O-])c1ccc(-c2nc(-c3ccncc3)c(-c3ccc(F)cc3)[nH]2)cc1 (stereo unspecified) [SB-203580] | 8.6 µM | – | 8.4% | 68.1% | 0%
